Assay results: patent US8440686B2, “Nalmefene prodrugs” (Janssen Pharmaceutica NV, priority 2008, dated 2013)

Experiment: In vivo PK studies in dog (oral administration): plasma levels of nalmefene
Conditions: oral administration of nalmefene itself
Experimental: C.2. In vivo PK Studies in Dog (Oral Administration): Plasma Levels of Nalmefene
Doses at 10 mg/kg or 20 mg/kg body weight of a compound of formula (I) or of nalmefene itself in a solution of 20% HP-β-CD (hydroxypropyl-β-cyclodextrines) were used and orally administered to dogs.
Blood samples were taken over a period of 192 hours after oral administration. Blood samples were processed to obtain plasma. Plasma samples were analysed individually for nalmefene by means of a qualified LC-MS/MS-method.

C=C1CC[C@@]2(O)[C@H]3Cc4ccc(O)c5c4[C@@]2(CCN3CC2CC2)[C@H]1O5 [nalmefene, 17-cyclopropylmethyl-4,5α-epoxy-6-methylenemorphinan-3,14-diol]
time for which plasma levels of nalmefene can be measured after oral administration: a few hours
